# Assay results reported in ChEMBL document CHEMBL4261615, “Design, synthesis, biological evaluation and cellular imaging of imidazo[4,5-b]pyridine derivatives as potent and selective TAM inhibitors” (Bioorg Med Chem, 2018).
# The source made the active and inactive calls. The rule behind the calls is not given here.
# Legend:
# [1] = target: T1, Tyrosine-protein kinase Mer (Homo sapiens) (UniProt Q12866); experiment: Binding affinity to wild-type partial length human MER (R557 to L884 residues) expressed in bacterial expression system assessed as fraction of unbound kinase to substrate at 1 uM after 1 hr by KinomeScan assay
# T1 sequence (whole entry): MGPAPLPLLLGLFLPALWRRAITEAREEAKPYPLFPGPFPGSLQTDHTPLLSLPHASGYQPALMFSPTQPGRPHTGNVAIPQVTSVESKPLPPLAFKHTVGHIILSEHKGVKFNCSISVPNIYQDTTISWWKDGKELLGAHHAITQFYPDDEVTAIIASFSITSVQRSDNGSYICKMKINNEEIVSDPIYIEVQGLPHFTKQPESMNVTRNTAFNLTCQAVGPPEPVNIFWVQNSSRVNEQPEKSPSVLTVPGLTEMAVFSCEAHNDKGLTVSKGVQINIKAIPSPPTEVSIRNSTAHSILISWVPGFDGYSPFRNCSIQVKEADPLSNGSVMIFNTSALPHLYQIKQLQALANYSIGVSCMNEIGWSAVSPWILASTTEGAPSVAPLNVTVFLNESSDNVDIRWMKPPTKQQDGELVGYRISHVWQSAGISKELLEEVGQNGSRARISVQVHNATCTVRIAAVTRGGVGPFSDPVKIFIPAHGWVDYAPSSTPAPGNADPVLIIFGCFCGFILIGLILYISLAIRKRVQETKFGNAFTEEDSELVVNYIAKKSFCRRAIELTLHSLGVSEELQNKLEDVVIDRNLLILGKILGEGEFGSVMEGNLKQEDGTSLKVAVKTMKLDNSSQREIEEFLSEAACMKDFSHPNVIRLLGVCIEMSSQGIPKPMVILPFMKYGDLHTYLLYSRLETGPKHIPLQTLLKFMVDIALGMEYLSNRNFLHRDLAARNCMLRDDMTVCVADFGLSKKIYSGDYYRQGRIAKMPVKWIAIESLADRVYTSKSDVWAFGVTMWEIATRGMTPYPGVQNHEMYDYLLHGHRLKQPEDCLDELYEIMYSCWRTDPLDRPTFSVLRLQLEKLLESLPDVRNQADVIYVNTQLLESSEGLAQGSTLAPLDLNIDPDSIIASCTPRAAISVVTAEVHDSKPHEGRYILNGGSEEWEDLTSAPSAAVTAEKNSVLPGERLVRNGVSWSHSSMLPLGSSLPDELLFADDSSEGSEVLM
# [2] = target: Glycogen synthase kinase-3 beta (Homo sapiens) (UniProt P49841); experiment: Binding affinity to full length wild type human GSK3beta (M1 to T433 residues) expressed in mammalian expression system assessed as fraction of unbound kinase to substrate at 0.1 uM after 1 hr by KinomeScan assay
# Sequence of Glycogen synthase kinase-3 beta (Homo sapiens) (P49841 whole entry, looked up, the tested form may be a part): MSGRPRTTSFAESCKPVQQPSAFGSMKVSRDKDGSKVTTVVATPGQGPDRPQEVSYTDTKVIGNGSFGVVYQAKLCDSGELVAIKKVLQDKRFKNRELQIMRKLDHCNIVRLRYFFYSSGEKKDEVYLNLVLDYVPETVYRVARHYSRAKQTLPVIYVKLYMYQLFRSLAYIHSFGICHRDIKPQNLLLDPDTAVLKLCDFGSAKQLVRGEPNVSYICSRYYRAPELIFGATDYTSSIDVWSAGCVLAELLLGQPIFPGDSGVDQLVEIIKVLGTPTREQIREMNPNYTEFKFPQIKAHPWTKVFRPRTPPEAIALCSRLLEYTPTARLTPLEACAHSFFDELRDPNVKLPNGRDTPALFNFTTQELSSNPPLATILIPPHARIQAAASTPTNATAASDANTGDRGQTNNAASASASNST
# [3] = target: Hepatocyte growth factor receptor (Homo sapiens) (UniProt P08581); experiment: Binding affinity to human MET (D1010 to S1367 residues) expressed in bacterial expression system assessed as fraction of unbound kinase to substrate at 1 uM after 1 hr by KinomeScan assay
# Sequence of Hepatocyte growth factor receptor (Homo sapiens) (P08581 whole entry, the tested form may be a part): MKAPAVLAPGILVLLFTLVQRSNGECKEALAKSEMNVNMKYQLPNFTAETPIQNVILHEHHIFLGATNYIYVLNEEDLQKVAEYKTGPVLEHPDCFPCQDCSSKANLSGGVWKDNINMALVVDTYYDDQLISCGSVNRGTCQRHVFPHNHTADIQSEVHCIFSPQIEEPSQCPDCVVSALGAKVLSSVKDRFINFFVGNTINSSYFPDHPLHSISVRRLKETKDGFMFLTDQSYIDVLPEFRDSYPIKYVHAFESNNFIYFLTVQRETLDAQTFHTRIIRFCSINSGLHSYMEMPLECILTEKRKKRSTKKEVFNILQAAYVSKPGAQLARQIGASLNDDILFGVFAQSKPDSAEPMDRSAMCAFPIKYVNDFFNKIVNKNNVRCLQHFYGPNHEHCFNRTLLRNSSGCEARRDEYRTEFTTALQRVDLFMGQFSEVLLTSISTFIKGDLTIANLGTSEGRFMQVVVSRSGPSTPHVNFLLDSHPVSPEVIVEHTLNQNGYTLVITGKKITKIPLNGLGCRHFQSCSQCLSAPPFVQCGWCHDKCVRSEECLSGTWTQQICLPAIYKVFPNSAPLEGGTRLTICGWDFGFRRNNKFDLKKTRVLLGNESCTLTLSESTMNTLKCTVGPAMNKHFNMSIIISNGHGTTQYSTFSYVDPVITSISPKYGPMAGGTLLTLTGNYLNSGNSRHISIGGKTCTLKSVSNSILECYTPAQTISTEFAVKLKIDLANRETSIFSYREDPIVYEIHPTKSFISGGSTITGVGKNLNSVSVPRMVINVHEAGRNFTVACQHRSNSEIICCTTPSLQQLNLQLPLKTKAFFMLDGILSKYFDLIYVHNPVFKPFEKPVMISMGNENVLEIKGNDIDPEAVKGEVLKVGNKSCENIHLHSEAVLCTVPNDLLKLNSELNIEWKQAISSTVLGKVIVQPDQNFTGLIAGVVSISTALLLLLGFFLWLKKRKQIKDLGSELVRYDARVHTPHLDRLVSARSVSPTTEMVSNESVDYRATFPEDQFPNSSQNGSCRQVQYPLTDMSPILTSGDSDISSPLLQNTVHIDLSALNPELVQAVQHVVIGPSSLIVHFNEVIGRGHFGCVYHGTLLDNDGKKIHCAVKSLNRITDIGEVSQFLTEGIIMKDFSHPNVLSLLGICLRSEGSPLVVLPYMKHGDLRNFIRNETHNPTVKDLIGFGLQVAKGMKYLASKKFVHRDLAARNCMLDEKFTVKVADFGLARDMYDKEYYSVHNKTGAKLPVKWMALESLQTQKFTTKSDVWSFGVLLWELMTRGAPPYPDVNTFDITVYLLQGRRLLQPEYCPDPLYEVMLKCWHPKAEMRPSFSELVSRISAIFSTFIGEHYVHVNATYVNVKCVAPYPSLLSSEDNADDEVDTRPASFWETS
# [4] = target: Fibroblast growth factor receptor 1 (Homo sapiens) (UniProt P11362); experiment: Binding affinity to wild-type human partial length FGFR1 (P357 to V669 residues) expressed in bacterial expression system assessed as fraction of unbound kinase to substrate at 0.1 uM after 1 hr by KinomeScan assay
# Sequence of Fibroblast growth factor receptor 1 (Homo sapiens) (P11362 22-822 limits assumed): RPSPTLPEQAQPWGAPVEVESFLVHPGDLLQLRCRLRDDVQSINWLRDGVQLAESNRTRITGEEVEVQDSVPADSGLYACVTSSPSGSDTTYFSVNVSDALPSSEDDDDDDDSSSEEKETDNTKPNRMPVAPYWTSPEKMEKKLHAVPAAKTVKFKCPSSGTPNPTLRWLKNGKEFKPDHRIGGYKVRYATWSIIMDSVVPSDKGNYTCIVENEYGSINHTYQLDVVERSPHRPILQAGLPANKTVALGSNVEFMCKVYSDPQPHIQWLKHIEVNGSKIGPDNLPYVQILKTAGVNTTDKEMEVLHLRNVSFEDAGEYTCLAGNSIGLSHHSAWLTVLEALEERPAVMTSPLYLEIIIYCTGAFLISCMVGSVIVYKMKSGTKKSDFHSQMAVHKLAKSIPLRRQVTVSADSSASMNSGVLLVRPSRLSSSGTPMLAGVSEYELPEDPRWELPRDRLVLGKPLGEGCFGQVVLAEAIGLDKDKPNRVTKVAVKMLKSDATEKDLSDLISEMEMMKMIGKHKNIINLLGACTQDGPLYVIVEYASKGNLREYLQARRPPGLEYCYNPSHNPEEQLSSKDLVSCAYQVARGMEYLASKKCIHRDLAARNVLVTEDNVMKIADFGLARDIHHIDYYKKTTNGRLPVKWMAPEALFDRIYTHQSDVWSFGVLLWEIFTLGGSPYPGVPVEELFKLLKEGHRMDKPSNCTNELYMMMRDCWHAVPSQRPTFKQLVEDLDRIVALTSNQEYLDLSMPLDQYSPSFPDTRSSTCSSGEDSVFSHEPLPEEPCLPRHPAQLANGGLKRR
# [5] = target: Tyrosine-protein kinase ABL1 (Homo sapiens) (UniProt P00519); experiment: Binding affinity to human wild type ABL1 (229 to 512 residues) expressed in mammalian expression system assessed as fraction of unbound kinase to substrate at 0.1 uM after 1 hr by KinomeScan assay
# Sequence of Tyrosine-protein kinase ABL1 (Homo sapiens) (P00519 whole entry, the tested form may be a part): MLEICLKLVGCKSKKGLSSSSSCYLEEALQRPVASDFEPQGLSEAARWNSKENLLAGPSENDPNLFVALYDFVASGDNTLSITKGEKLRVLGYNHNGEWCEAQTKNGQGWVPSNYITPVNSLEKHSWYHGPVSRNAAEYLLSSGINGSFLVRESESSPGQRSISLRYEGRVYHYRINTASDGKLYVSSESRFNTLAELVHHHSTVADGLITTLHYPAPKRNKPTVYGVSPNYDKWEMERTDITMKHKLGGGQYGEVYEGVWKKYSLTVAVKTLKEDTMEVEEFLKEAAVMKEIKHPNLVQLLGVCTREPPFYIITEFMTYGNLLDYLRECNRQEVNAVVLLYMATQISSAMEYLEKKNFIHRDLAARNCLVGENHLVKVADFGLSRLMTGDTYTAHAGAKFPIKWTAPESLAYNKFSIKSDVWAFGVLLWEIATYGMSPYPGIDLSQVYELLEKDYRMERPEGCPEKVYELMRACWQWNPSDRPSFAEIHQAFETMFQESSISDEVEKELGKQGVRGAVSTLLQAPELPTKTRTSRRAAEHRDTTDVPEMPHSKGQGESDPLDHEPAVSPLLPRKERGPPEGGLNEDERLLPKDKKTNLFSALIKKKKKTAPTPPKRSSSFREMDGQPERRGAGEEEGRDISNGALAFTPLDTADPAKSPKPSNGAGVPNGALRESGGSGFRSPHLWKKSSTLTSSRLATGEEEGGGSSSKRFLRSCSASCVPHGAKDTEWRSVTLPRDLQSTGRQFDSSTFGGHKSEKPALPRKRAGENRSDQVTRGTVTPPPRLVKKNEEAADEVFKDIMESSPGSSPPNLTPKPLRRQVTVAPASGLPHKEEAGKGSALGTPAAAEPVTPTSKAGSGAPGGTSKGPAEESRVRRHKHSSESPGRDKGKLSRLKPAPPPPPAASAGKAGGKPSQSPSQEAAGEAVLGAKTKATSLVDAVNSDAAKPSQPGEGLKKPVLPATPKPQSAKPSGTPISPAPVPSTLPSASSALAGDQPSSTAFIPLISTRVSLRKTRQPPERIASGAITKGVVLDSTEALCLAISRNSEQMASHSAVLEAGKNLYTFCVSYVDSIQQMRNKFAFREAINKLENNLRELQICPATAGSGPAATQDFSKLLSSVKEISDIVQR
# [6] = target: T2, Tyrosine-protein kinase receptor TYRO3 (Homo sapiens) (UniProt Q06418); experiment: Inhibition of recombinant GST-tagged human Tyro3 (451 to 890 residues) cytoplasmic domain expressed in Baculovirus expression system using poly (Glu-Ala-Tyr) peptide as substrate after 1.5 hrs by ELISA
# T2 sequence (whole entry): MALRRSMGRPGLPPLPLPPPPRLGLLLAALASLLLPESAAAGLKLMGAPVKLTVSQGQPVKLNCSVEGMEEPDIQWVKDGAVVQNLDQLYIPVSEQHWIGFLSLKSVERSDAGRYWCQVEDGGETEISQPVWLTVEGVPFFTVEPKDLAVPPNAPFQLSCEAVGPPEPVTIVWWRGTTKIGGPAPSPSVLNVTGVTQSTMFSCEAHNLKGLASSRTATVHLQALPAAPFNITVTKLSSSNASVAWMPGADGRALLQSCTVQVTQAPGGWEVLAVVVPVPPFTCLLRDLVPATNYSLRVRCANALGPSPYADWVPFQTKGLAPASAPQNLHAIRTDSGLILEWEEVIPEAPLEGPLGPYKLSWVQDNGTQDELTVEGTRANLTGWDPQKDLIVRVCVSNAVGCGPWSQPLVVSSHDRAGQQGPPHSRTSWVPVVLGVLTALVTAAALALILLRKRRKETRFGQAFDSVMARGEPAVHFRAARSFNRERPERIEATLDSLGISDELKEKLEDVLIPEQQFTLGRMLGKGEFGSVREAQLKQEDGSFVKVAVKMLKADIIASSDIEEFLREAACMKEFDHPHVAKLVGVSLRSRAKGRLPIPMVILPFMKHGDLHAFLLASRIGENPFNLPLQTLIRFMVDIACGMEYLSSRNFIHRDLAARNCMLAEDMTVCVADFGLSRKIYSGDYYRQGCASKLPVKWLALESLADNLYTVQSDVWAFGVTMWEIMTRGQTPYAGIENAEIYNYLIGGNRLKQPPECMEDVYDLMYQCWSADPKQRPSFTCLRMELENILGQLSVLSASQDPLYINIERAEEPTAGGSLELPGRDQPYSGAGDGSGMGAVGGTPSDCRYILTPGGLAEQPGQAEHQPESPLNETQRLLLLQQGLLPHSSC
# [7] = target: T3, Tyrosine-protein kinase receptor TYRO3 (Homo sapiens, UniProt Q06418); experiment: Inhibition of recombinant GST-tagged human Tyro3 (451 to 890 residues) cytoplasmic domain expressed in Baculovirus expression system using poly (Glu-Ala-Tyr) peptide as substrate after 5 mins in presence of ADP by fluorescence analysis
# T3 sequence (Q06418 whole entry): T2 sequence (whole entry)
# [8] = target: Glycogen synthase kinase-3 beta (Homo sapiens) (UniProt P49841); experiment: Binding affinity to full length wild type human GSK3beta (M1 to T433 residues) expressed in mammalian expression system assessed as fraction of unbound kinase to substrate at 1 uM after 1 hr by KinomeScan assay
# [9] = target: T1, Tyrosine-protein kinase Mer (Homo sapiens); experiment: Inhibition of recombinant GST-tagged human Mer (578 to 872 residues) cytoplasmic domain expressed in Baculovirus system using poly (Glu-Ala-Tyr) peptide as substrate after 1.5 hrs by ELISA
# [10] = target: T1, Tyrosine-protein kinase Mer (Homo sapiens); experiment: Binding affinity to wild-type partial length human MER (R557 to L884 residues) expressed in bacterial expression system assessed as fraction of unbound kinase to substrate at 0.1 uM after 1 hr by KinomeScan assay
# [11] = target: Tyrosine-protein kinase ABL1 (Homo sapiens) (UniProt P00519); experiment: Binding affinity to human wild type ABL1 (229 to 512 residues) expressed in mammalian expression system assessed as fraction of unbound kinase to substrate at 1 uM after 1 hr by KinomeScan assay
SMILES,Activity [1],Activity [2],Activity [3],Activity [4],Activity [5],inhibition [6],IC50 [7],Activity [8],inhibition [9],Activity [10],Activity [11]
Cc1cnc2[nH]cnc2c1Oc1ccc(NC(=O)c2cccn(-c3ccc(F)cc3)c2=O)cc1F,78%,2%,94.5%,8%,1%,inactive,> 100 µM,5%,inactive,17%,1%
O=C(Nc1ccc(Oc2ccnc3[nH]cnc23)c(F)c1)c1cccn(-c2ccc(F)cc2)c1=O,99.3%,0%,96%,1%,2%,Active,0.69 µM,5%,Active,87%,13%
CC(C)c1nc2c(Oc3ccc(NC(=O)c4cccn(-c5ccc(F)cc5)c4=O)cc3F)ccnc2[nH]1,99.6%,0%,96.7%,7%,1%,inactive,4.7 µM,0%,Active,92.3%,3%
O=C(Nc1ccc(Oc2c(Br)cnc3[nH]cnc23)c(F)c1)c1cccn(-c2ccc(F)cc2)c1=O,60%,0%,82%,7%,0%,inactive,0.27 µM,1%,inactive,4%,0%
